Experimental data: publication PMC4460250, “Systems Pharmacology Dissecting Holistic Medicine for Treatment of Complex Diseases: An Example Using Cardiocerebrovascular Diseases Treated by TCM” (Evidence-based Complementary and Alternative Medicine : eCAM, 2015)

Experiments:
[1] = in vivo
[2] = in vivo; cited from earlier work

| SMILES | Class(High: HIA value ≥0.7; Low: HIA value < 0.7) [1] | HIA(Human Intestinal Absorption) [2] |
| --- | --- | --- |
| COC(=O)C1=C(C)NC(C)=C(C(=O)OC(C)C)[C@H]1c1cccc2nonc12 [Isradipine(S)] | High (key: High: HIA value ≥0.7; Low: HIA value < 0.7) | 0.92 |
| CCC(C)n1ncn(-c2ccc(N3CCN(c4ccc(OCC5COC(Cn6cncn6)(c6ccc(Cl)cc6Cl)O5)cc4)CC3)cc2)c1=O [Itraconazole(R)] | High (key: High: HIA value ≥0.7; Low: HIA value < 0.7) | 0.8 |
| CC[C@H](C)[C@H]1O[C@]2(CC[C@@H]1C)C[C@@H]1C[C@@H](C/C=C(\C)[C@@H](O[C@H]3C[C@H](OC)[C@@H](O[C@H]4C[C@H](OC)[C@@H](O)[C@H](C)O4)[C@H](C)O3)[C@@H](C)/C=C/C=C3\CO[C@@H]4[C@H](O)C(C)=C[C@@H](C(=O)O1)[C@]34O)O2 [Ivermectin] | Low (key: High: HIA value ≥0.7; Low: HIA value < 0.7) | 0.6 |
| NC[C@H]1O[C@H](O[C@H]2[C@H](O)[C@@H](O[C@H]3O[C@H](CO)[C@@H](O)[C@H](N)[C@H]3O)[C@H](N)C[C@@H]2N)[C@H](O)[C@@H](O)[C@@H]1O [Kanamycin] | Low (key: High: HIA value ≥0.7; Low: HIA value < 0.7) | 0.01 |
| CC1=CC(=O)N2CC(=O)N(C)c3ccc(Cl)cc3C2(c2ccccc2)O1 (stereo not drawn) [Ketazolam] | High (key: High: HIA value ≥0.7; Low: HIA value < 0.7) | 1 |
| O=C(c1ccccc1)c1ccc2n1CC[C@H]2C(=O)O [Ketorolac(R)] | High (key: High: HIA value ≥0.7; Low: HIA value < 0.7) | 0.95 |
| O=C(c1ccccc1)c1ccc2n1CC[C@@H]2C(=O)O [Ketorolac(S)] | High (key: High: HIA value ≥0.7; Low: HIA value < 0.7) | 0.95 |
| CC[C@@H](C(N)=O)N1CCCC1=O [Levetiracetam(S)] | High (key: High: HIA value ≥0.7; Low: HIA value < 0.7) | 1 |
| CCn1cc(C(=O)O)c(=O)c2cc(F)c(N3CCN[C@H](C)C3)c(F)c21 [Lomefloxacin(R)] | High (key: High: HIA value ≥0.7; Low: HIA value < 0.7) | 0.99 |
| CCn1cc(C(=O)O)c(=O)c2cc(F)c(N3CCN[C@@H](C)C3)c(F)c21 [Lomefloxacin(S)] | High (key: High: HIA value ≥0.7; Low: HIA value < 0.7) | 0.99 |
| N[C@@H](C(=O)N[C@@H]1C(=O)N2C(C(=O)O)=C(Cl)CC[C@H]12)c1ccccc1 [Loracarbef] | High (key: High: HIA value ≥0.7; Low: HIA value < 0.7) | 1 |
| O=C1Nc2ccc(Cl)cc2C(c2ccccc2Cl)=N[C@@H]1O [Lorazepam(R)] | High (key: High: HIA value ≥0.7; Low: HIA value < 0.7) | 0.95 |
| O=C1Nc2ccc(Cl)cc2C(c2ccccc2Cl)=N[C@H]1O [Lorazepam(S)] | High (key: High: HIA value ≥0.7; Low: HIA value < 0.7) | 0.95 |
| CN1C(=O)[C@@H](O)N=C(c2ccccc2Cl)c2cc(Cl)ccc21 [Lormetazepam(R)] | High (key: High: HIA value ≥0.7; Low: HIA value < 0.7) | 1 |
| CN1C(=O)[C@H](O)N=C(c2ccccc2Cl)c2cc(Cl)ccc21 [Lormetazepam(S)] | High (key: High: HIA value ≥0.7; Low: HIA value < 0.7) | 1 |
| CCN(CCCCOC(=O)c1ccc(OC)c(OC)c1)[C@H](C)Cc1ccc(OC)cc1 [Mebeverine(R)] | High (key: High: HIA value ≥0.7; Low: HIA value < 0.7) | 0.9 |
| CCN(CCCCOC(=O)c1ccc(OC)c(OC)c1)[C@@H](C)Cc1ccc(OC)cc1 [Mebeverine(S)] | High (key: High: HIA value ≥0.7; Low: HIA value < 0.7) | 0.9 |
| CCOC(=O)C1(c2ccccc2)CCN(C)CC1 [Meperidine] | High (key: High: HIA value ≥0.7; Low: HIA value < 0.7) | 1 |
| CC[C@]1(c2cccc(O)c2)CCCCN(C)C1 [Meptazinol(R)] | High (key: High: HIA value ≥0.7; Low: HIA value < 0.7) | 1 |
| CC[C@@]1(c2cccc(O)c2)CCCCN(C)C1 [Meptazinol(S)] | High (key: High: HIA value ≥0.7; Low: HIA value < 0.7) | 1 |
| CC(C)NC[C@H](O)c1cc(O)cc(O)c1 [Metaproterenol(R)] | Low (key: High: HIA value ≥0.7; Low: HIA value < 0.7) | 0.43 |
| CC(C)NC[C@@H](O)c1cc(O)cc(O)c1 [Metaproterenol(S)] | Low (key: High: HIA value ≥0.7; Low: HIA value < 0.7) | 0.43 |
| COc1ccccc1OC[C@@H](O)COC(N)=O [Methocarbamol(R)] | High (key: High: HIA value ≥0.7; Low: HIA value < 0.7) | 1 |

| SMILES | Class(High: HIA value ≥0.7; Low: HIA value < 0.7) [1] | HIA(Human Intestinal Absorption) [2] |
| --- | --- | --- |
| COc1ccccc1OC[C@H](O)COC(N)=O [Methocarbamol(S)] | High (key: High: HIA value ≥0.7; Low: HIA value < 0.7) | 1 |
| CN(Cc1cnc2nc(N)nc(N)c2n1)c1ccc(C(=O)N[C@@H](CCC(=O)O)C(=O)O)cc1 [Methotrexate(S)] | High (key: High: HIA value ≥0.7; Low: HIA value < 0.7) | 1 |
| COc1ccc(C[C@@H](C)N)cc1 [Methoxyamphetamine(R)] | High (key: High: HIA value ≥0.7; Low: HIA value < 0.7) | 0.8 |
| CN1C(=O)C[C@](C)(c2ccccc2)C1=O [Methsuximide(R)] | High (key: High: HIA value ≥0.7; Low: HIA value < 0.7) | 1 |
| CN1C(=O)C[C@@](C)(c2ccccc2)C1=O [Methsuximide(S)] | High (key: High: HIA value ≥0.7; Low: HIA value < 0.7) | 1 |
| COC(=O)C(c1ccccc1)C1CCCCN1 (stereo not drawn) [Methylphenidate] | High (key: High: HIA value ≥0.7; Low: HIA value < 0.7) | 0.8 |
| CC[C@@H](CO)NC(=O)[C@@H]1C=C2c3cccc4c3c(cn4C)C[C@H]2N(C)C1 [Methysergide] | High (key: High: HIA value ≥0.7; Low: HIA value < 0.7) | 1 |
| Cc1ccccc1N1C(=O)c2cc(S(N)(=O)=O)c(Cl)cc2N[C@H]1C [Metolazone(R)] | Low (key: High: HIA value ≥0.7; Low: HIA value < 0.7) | 0.64 |
| Cc1ccccc1N1C(=O)c2cc(S(N)(=O)=O)c(Cl)cc2N[C@@H]1C [Metolazone(S)] | Low (key: High: HIA value ≥0.7; Low: HIA value < 0.7) | 0.64 |
| COCCc1ccc(OC[C@H](O)CNC(C)C)cc1 [Metoprolol(R)] | High (key: High: HIA value ≥0.7; Low: HIA value < 0.7) | 0.96 |
| COCCc1ccc(OC[C@@H](O)CNC(C)C)cc1 [Metoprolol(S)] | High (key: High: HIA value ≥0.7; Low: HIA value < 0.7) | 0.96 |
| Cc1cccc(C)c1OC[C@@H](C)N [Mexiletine(R)] | High (key: High: HIA value ≥0.7; Low: HIA value < 0.7) | 0.98 |
| Clc1ccc(CO[C@@H](Cn2ccnc2)c2ccc(Cl)cc2Cl)c(Cl)c1 [Miconazole(R)] | High (key: High: HIA value ≥0.7; Low: HIA value < 0.7) | 0.99 |
| Clc1ccc(CO[C@H](Cn2ccnc2)c2ccc(Cl)cc2Cl)c(Cl)c1 [Miconazole(S)] | High (key: High: HIA value ≥0.7; Low: HIA value < 0.7) | 0.99 |
| Cc1ncc2n1-c1ccc(Cl)cc1C(c1ccccc1F)=NC2 [Midazolam] | High (key: High: HIA value ≥0.7; Low: HIA value < 0.7) | 1 |
| COP(=O)(OC)O[C@@H](c1ccc(Cl)cc1)P(=O)(OC)OC [Mifobate(R)] | High (key: High: HIA value ≥0.7; Low: HIA value < 0.7) | 0.82 |
| COP(=O)(OC)O[C@H](c1ccc(Cl)cc1)P(=O)(OC)OC [Mifobate(S)] | High (key: High: HIA value ≥0.7; Low: HIA value < 0.7) | 0.82 |
| CCCCC(C)(O)C/C=C/[C@H]1[C@H](O)CC(=O)[C@@H]1CCCCCCC(=O)OC (stereo partly drawn) [Misoprostol(R)] | High (key: High: HIA value ≥0.7; Low: HIA value < 0.7) | 0.88 |
| NC(=O)C[S+]([O-])C(c1ccccc1)c1ccccc1 (stereo not drawn) [Modafinil] | High (key: High: HIA value ≥0.7; Low: HIA value < 0.7) | 0.8 |
| COc1cc2c(cc1OC)CN(C(=O)[C@H](C)N[C@@H](CCc1ccccc1)C(=O)O)[C@H](C(=O)O)C2 [Moexipril_diacid] | Low (key: High: HIA value ≥0.7; Low: HIA value < 0.7) | 0.05 |
| CO[C@@]1(NC(=O)C(C(=O)O)c2ccc(O)cc2)C(=O)N2C(C(=O)O)=C(CSc3nnnn3C)CO[C@@H]21 (stereo partly drawn) [Moxalactam(R)] | Low (key: High: HIA value ≥0.7; Low: HIA value < 0.7) | 0.01 |
| CC(C)[C@H]1CC[C@H](C(=O)N[C@H](Cc2ccccc2)C(=O)O)CC1 [Nateglinide(R)] | High (key: High: HIA value ≥0.7; Low: HIA value < 0.7) | 0.83 |
